pEC50: −log10 of the molar value. Converted amounts (≈) assume the structure as drawn.
Legend:
[1] = system: Plasmodium falciparum; test: Antimalarial activity against chloroquine and pyrimethamine-resistant Plasmodium falciparum W2 infected in human A positive erythrocytes after 72 hrs by SYBR Green I assay; assay type: functional, organism-based; settings: W2, 72 h
[2] = system: Plasmodium falciparum; test: Antimalarial activity against chloroquine, mefloquine, pyrimethamine and atovaquone-resistant Plasmodium falciparum TM90-C2B infected in human A positive erythrocytes after 72 hrs by SYBR Green I assay; assay type: functional, organism-based
[3] = system: Plasmodium falciparum; test: Resistance index, ratio of EC50 for chloroquine, mefloquine, pyrimethamine and atovaquone-resistant Plasmodium falciparum TM90-C2B to EC50 for chloroquine and pyrimethamine-resistant Plasmodium falciparum W2; assay type: functional
[4] = system: J774; test: Cytotoxicity against mouse J774 cells after 72 hrs by Cell titer 96 aqueous one solution cell proliferation assay; assay type: cell-based; settings: J774, 72 h
[5] = Aqueous solubility of compound at pH 7.4 by HPLC analysis; settings: buffer
[6] = Permeability of the compound by PAMPA method at pH 7.4; assay type: ADME; settings: read-out: permeability
[7] = Partition coefficient, log D of the compound at pH 7.4 by HPLC analysis; settings: octanol/water
[8] = Cytotoxicity index, ratio of EC50 for mouse J774 cells to EC50 for chloroquine, mefloquine, pyrimethamine and atovaquone-resistant Plasmodium falciparum TM90-C2B; assay type: cell-based; settings: read-out: Ratio EC50

Row | SMILES | pEC50 [1] | pEC50 [2] | Ratio EC50 [3] | pEC50 [4] | solubility [5] [µM] | Papp [6] [×10⁻⁶ cm/s] | logD [7] | selectivity ratio [8]
1 | O=c1c2c([nH]c3cc(C(F)(F)F)ccc13)CCC2 | 5.63 | 6.36 | 0.19 | < 4.40 | 98 (≈ 24.8 µg/mL) | 60 | 2.3 | ≥ 100
2 | O=c1c2c([nH]c3cc(C(F)(F)F)ccc13)CCCC2 | 6.92 | 7.72 | 0.16 | < 4.70 | 158 (≈ 42.2 µg/mL) | 73 | 2.7 | ≥ 100
3 | O=c1c2c([nH]c3cc(C(F)(F)F)ccc13)CCCCC2 | 5.31 | < 5.36 | >0.88 | < 5.00 | 17 (≈ 4.78 µg/mL) | 131 | 3 | ≥ 100
4 | O=c1c2c([nH]c3cc(C(F)(F)F)ccc13)CCCCCC2 | 5.32 | 5.37 | 0.89 | < 5.00 | 13 (≈ 3.84 µg/mL) | 252 | 3.2 | ≥ 100
5 | COc1cccc2c(=O)c3c([nH]c12)CCCC3 | 5.32 | 5.34 | 0.95 | < 4.70 | 99 (≈ 22.7 µg/mL) | 16 | 1.7 | ≥ 100
6 | COc1ccc2[nH]c3c(c(=O)c2c1)CCCC3 | 5.61 | 5.60 | 1.03 | < 4.40 | 78 (≈ 17.9 µg/mL) | 16 | 1.5 | ≥ 100
7 | COc1cccc2[nH]c3c(c(=O)c12)CCCC3 | 5.05 | 5.23 | 0.66 | < 4.70 | 76 (≈ 17.4 µg/mL) | 17 | 1.2 | ≥ 100
8 | Cc1ccc2[nH]c3c(c(=O)c2c1)CCCC3 | 6.35 | 6.18 | 1.46 | < 4.40 | 44 (≈ 9.38 µg/mL) | 19 | 1.7 | ≥ 100
9 | Cc1cccc2[nH]c3c(c(=O)c12)CCCC3 | 5.20 | 5.34 | 0.73 | < 4.70 | 99 (≈ 21.1 µg/mL) | 87 | 2.1 | ≥ 100
10 | O=c1c2c([nH]c3c(Cl)cccc13)CCCC2 | 5.87 | < 5.05 | >7.9 | < 4.70 | 107 (≈ 25 µg/mL) | 107 | 2.2 | ≥ 100
11 | O=c1c2c([nH]c3c(Cl)ccc(Cl)c13)CCCC2 | < 5.03 | < 5.03 | – | < 4.70 | 108 (≈ 29 µg/mL) | 288 | 2.6 | ≥ 100
12 | O=c1c2c([nH]c3c(Cl)cc(Cl)cc13)CCCC2 | < 5.03 | < 5.03 | – | < 6.00 | 1 (≈ 0.268 µg/mL) | 252 | 3 | ≥ 100
13 | CC(C)Oc1cc2[nH]c3c(c(=O)c2cc1Cl)CCCC3 | 7.67 | 6.98 | 4.88 | < 7.00 | 0.3 (≈ 0.0875 µg/mL) | – | 2.9 | ≥ 100
14 | O=c1c2c([nH]c3cc(Br)ccc13)CCSC2 | 6.18 | < 5.07 | – | < 5.00 | 17 (≈ 5.04 µg/mL) | 6.3 | 0.9 | ≥ 100
15 | CN1CCc2[nH]c3ccccc3c(=O)c2C1 | < 5.00 | < 5.00 | – | < 4.70 | 33 (≈ 7.07 µg/mL) | 21 | 1 | ≥ 100
16 | O=c1c2c([nH]c3ccc(Oc4ccc(F)cc4)cc13)CCCC2 | 6.77 | 7.33 | 0.28 | < 5.30 | 8 (≈ 2.47 µg/mL) | – | 2.8 | ≥ 100
17 | O=c1c2c([nH]c3cc(Cl)ccc13)CCCC2 | 6.86 | 6.91 | 0.89 | < 5.00 | 15 (≈ 3.51 µg/mL) | 75 | 2.2 | ≥ 100
18 | CN(C)CCC/N=C1\CC(c2ccc(Cl)cc2Cl)Cc2nc3ccc(Cl)cc3c(O)c21 (racemic) | 7.60 | 6.52 | 12 | – | – | – | – | ≥ 100
19 | C[C@H]1[C@@H](O)O[C@@H]2O[C@@]3(C)CC[C@H]4[C@H](C)CC[C@@H]1[C@@]24OO3 [ARTENIMOL] | 8.74 | 9.05 | – | – | – | – | – | –
20 | O=C1C(O)=C([C@H]2CC[C@H](c3ccc(Cl)cc3)CC2)C(=O)c2ccccc21 [ATOVAQUONE] | 9.28 | < 6.77 | – | – | – | – | – | –
